Where two headings read alike, the source gives them in different places.
What was measured:
Tadpole = Tadpole loss of righting reflex (LRR) and loss of swimming reflex (LSR); type: in vivo; conditions: ± SEM
Protocol: Table 3 discloses the anesthetic effects of the compounds of the present disclosure. In particular, the anesthetic effect of the compounds of the present disclosure on Loss of Righting Reflex (LRR) and Loss of Swimming Reflex (LSR).
Methods used are known in the art (see Jiang, X., et al.). Error limits are calculated as standard error of the mean (N=10 or more animals at each of five or more different concentrations).

[1] = target: picrotoxin binding site on GABAA receptors; assay: [35S]-TBPS displacement (inhibition of [35S]-TBPS binding); conditions: non-competitive displacement of [35S]-TBPS; ± SEM, duplicate experiments in triplicate
Protocol: The IC50 values for non-competitive displacers of [^35S]-TBPS from the picrotoxin binding site on GABAA receptors are reported in Table 1.
Results presented are from duplicate experiments performed in triplicate. Error limits are calculated as standard error of the mean. Methods used are known in the art (see Jiang, X., et al., Neurosteroid analogues. 9. Conformationally constrained pregnanes: structure-activity studies of 13,24-cyclo-18,21-dinorcholane analogues of the GABA modulatory and anesthetic steroids (3α,5α)- and […]. J. Med. Chem., 46: 5334-48 (2003)—the contents of which are hereby incorporated by reference in their entirety).

[2] = target: T1, rat α1β2γ2L type GABAA receptors expressed in Xenopus laevis oocytes (Rattus norvegicus, UniProt P18508+P62813+P63138, INS375LLRMFSFK); assay: Potentiation of GABA-mediated chloride currents and direct gating, oocyte electrophysiology; type: cell-based; conditions: ± SEM, N ≥ 4; for oocyte electrophysiology 0.1 μM: ratio of currents measured in the presence/absence of added compound: 0.1 μM compound; for oocyte electrophysiology 0.1 μM: ratio of currents measured in the presence/absence of added compound / oocyte electrophysiology 1 μM: ratio of currents measured in the presence/absence of added compound / oocyte electrophysiology 10 μM: ratio of currents measured in the presence/absence of added compound: 2 μM GABA control response; for oocyte electrophysiology 1 μM: ratio of currents measured in the presence/absence of added compound: 1 μM compound; for oocyte electrophysiology 10 μM: ratio of currents measured in the presence/absence of added compound: 10 μM compound; for (gating) 10 μM: ratio of compound only current/2 μM GABA current: direct current gated by 10 μM compound in the absence of GABA
T1 construct: expressed in transfected cells; host or cells: Xenopus laevis oocytes
T1 sequence (P62813 28-455, stated change not applied): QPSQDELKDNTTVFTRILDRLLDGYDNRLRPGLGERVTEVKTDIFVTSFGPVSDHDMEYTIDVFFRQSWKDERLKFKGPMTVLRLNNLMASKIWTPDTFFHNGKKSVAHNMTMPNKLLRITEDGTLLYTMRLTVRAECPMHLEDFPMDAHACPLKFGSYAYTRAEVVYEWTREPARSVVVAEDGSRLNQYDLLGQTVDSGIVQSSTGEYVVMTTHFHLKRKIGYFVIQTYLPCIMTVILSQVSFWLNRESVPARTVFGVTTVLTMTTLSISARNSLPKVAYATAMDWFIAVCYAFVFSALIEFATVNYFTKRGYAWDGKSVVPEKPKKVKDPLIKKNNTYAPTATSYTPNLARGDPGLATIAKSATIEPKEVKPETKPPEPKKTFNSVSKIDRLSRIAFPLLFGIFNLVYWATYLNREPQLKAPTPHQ
T1 sequence (P63138 26-474, stated change not applied): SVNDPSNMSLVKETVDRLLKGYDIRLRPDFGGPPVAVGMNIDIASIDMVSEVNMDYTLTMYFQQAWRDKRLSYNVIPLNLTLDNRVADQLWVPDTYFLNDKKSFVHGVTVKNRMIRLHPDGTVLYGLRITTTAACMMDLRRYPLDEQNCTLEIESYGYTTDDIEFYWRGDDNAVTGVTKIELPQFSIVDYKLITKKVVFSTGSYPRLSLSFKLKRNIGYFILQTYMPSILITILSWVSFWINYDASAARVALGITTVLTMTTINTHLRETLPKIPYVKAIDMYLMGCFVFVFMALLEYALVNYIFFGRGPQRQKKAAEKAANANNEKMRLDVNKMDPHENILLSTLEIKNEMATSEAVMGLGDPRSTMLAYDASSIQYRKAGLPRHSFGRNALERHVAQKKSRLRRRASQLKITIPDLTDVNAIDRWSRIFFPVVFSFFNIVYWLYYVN
T1 sequence (P18508 with tags, fused parts or gaps INS375LLRMFSFK): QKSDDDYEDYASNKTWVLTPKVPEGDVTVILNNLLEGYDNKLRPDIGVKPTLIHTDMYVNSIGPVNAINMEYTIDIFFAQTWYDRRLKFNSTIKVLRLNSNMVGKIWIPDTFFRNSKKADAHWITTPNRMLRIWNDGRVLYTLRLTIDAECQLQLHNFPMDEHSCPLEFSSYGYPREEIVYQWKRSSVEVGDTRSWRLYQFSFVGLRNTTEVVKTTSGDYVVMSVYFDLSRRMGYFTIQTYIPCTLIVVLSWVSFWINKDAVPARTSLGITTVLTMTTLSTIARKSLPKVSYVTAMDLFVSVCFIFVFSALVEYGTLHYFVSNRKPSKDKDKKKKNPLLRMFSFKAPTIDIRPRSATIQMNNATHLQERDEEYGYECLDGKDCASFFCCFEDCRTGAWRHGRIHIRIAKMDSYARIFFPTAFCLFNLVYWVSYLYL
Protocol: The compounds of the present disclosure were evaluated for the ability to potentiate chloride currents mediated by 2 μM GABA at rat α1β2γ2L type GABAA receptors expressed in Xenopus laevis oocytes and the results are shown in Table 2.

[3] = loss of righting reflex, read-out: Tadpole LRR EC50
[4] = loss of swimming reflex, read-out: Tadpole LSR EC50

Row | SMILES | EC50 (Tadpole; [3]) [nM] | EC50 (Tadpole; [4]) [nM] | melting point [°C] | IC50 [1] [nM] | oocyte electrophysiology 0.1 μM: ratio of currents measured in the presence/absence of added compound [2] | oocyte electrophysiology 1 μM: ratio of currents measured in the presence/absence of added compound [2] | oocyte electrophysiology 10 μM: ratio of currents measured in the presence/absence of added compound [2] | (gating) 10 μM: ratio of compound only current/2 μM GABA current [2] | Tadpole LSR EC50 (μM) (Tadpole; loss of swimming reflex)
1 | C=C[C@]12CC[C@H]3[C@@H](CC[C@H]4C[C@H](O)CC[C@@]43C)[C@@H]1CC[C@@H]2C(C)=O [ZYC-75] | 670 ± 10 | 2640 ± 10 | 146 to 147 |  |  |  |  |  | 
2 | C=C[C@H]1CC[C@H]2[C@@H]3CC[C@H]4C[C@H](O)CC[C@]4(C)[C@H]3[C@@H](OC)C[C@]12C(C)=O [KK-144, 1-[(3α,5α,11β)-3-Hydroxy-11-methoxy-18-norpregn-20-en-13-yl]ethanone] | 180 ± 10 | 550 ± 10 | 127 to 129 | 72 ± 16 | 1.40 ± 0.11 | 5.38 ± 0.55 | 10.59 ± 1.31 | 0.18 ± 0.02 | 
3 | CC(=O)[C@]12CC[C@H]3[C@@H](CC[C@H]4C[C@H](O)CC[C@@]43C)[C@@H]1CC[C@@H]2[C@@H](C)O [ZYC-72, (3α,5α,20R)-13-Acetyl-18-norpregnane-3,20-diol] | 3060 | > 10000 | 159 to 161 | 978 ± 618 | 0.80 ± 0.08 | 1.30 ± 0.11 | 2.78 ± 0.37 | −0.03 ± 0.11 | 
4 | CC(=O)[C@]12CC[C@H]3[C@@H](CC[C@H]4C[C@H](O)CC[C@@]43C)[C@@H]1CC[C@@H]2CO [ZYC-73, 1-[(3α,5α,17β)-3-Hydroxy-17-hydroxymethyl-18-norandrostan-13-yl]ethanone] | > 10000 |  | 166 to 168 | 1460 | 1.07 ± 0.15 | 1.42 ± 0.16 | 6.16 ± 0.71 |  | None
5 | C=C[C@H]1CC[C@H]2[C@@H]3CC[C@H]4C[C@H](O)CC[C@]4(C)[C@H]3CC[C@]12C(C)=O [XJ-99, 1-[(3α,5α)-3-Hydroxy-18-norpregn-20-en-13-yl]ethanone] | 50 | 140 | 178 to 179.5 | 43 ± 12 | 1.73 ± 0.20 | 3.96 ± 0.99 | 4.37 ± 1.28 | 0.07 ± 0.02 | 
6 | CC(=O)[C@]12CC[C@H]3[C@@H](CC[C@H]4C[C@H](O)CC[C@@]43C)[C@@H]1CC[C@@H]2CCl [ZYC-74, 1-[(3α,5α,17β)-17-Chloromethy-3-hydroxy-18-norandrostan-13-yl]ethanone] | 3330 ± 1410 | 5480 ± 200 | 161 to 162 | 415 ± 83 | 1.06 ± 0.04 | 1.98 ± 0.21 | 9.38 ± 1.71 | 0.03 ± 0.01 | 
7 | C=C[C@]12CC[C@H]3[C@@H](CC[C@H]4C[C@H](O)CC[C@@]43C)[C@@H]1CC[C@@H]2[C@@H](C)O [ZYC-76, (3α,5α,20R)-13-Ethenyl-18-norpregnan-3,20-diol] | 742000 ± 202000 | 1740 ± 30 | 193 to 195 | 497 ± 59 | 1.00 ± 0.01 | 1.56 ± 0.13 | 7.28 ± 1.76 | 0.04 ± 0.02 | 
8 | CC[C@H]1CC[C@H]2[C@@H]3CC[C@H]4C[C@H](O)CC[C@]4(C)[C@H]3CC[C@]12C(C)=O [XJ-100, 1-[(3α,5α)-3-Hydroxy-18-norpregnan-13-yl]ethanone] | 460 ± 160 | > 10000 | 182 to 184 | 276 ± 130 | 1.33 ± 0.20 | 5.01 ± 0.89 | 8.41 ± 0.66 | −0.06 ± 0.06 | 
9 | C=C[C@H]1CC[C@H]2[C@@H]3CC[C@H]4C[C@H](O)CC[C@]4(COC)[C@H]3CC[C@]12C(C)=O [KK-145, 1-[(3α,5α)-3-Hydroxy-19-methoxy-18-norpregn-20-en-13-yl]ethanone] | 140 ± 10 | 550 ± 10 | 124 to 126 | 53 ± 4 | 1.75 ± 0.14 | 13.74 ± 3.71 | 35.57 ± 12.85 | 0.56 ± 0.07 | 
10 | C=C[C@H]1CC[C@H]2[C@@H]3C[C@@H](OC)[C@H]4C[C@H](O)CC[C@]4(C)[C@H]3CC[C@]12C(C)=O [KK-143, 1-[(3α,5α,6β)-3-Hydroxy-6-methoxy-18-norpregn-20-en-13-yl]ethanone] | 610 ± 60 | 1730 ± 30 | 158 to 160 | 270 ± 19 | 1.23 ± 0.06 | 2.93 ± 0.30 | 8.43 ± 0.69 | 0.07 ± 0.02 | 
11 | CC(=O)[C@H]1CC[C@H]2[C@@H]3CC[C@H]4C[C@H](O)CC[C@]4(C)[C@H]3CC[C@]12C(C)=O [ZYC-71, (3α,5α)-13-Acetyl-3-hydroxy-18-norpregnan-20-one] | 1730 ± 10 | 5480 ± 150 | 180 to 181 | 82 ± 7 | 1.82 ± 0.03 | 9.31 ± 0.46 | 19.44 ± 1.69 | 0.22 ± 0.01 | 
12 | C=C[C@H]1CC[C@H]2[C@@H]3CC[C@H]4C[C@H](O)[C@@H](OC)C[C@]4(C)[C@H]3CC[C@]12C(C)=O [KK-140, 1-[(2β,3α,5α)-3-Hydroxy-2-Methoxy-18-norpregn-20-en-13-yl]ethanone] | 50 | 300 | 155 to 157 | 17 ± 3 | 5.39 ± 2.76 | 11.90 ± 1.08 | 17.29 ± 2.10 | 0.27 ± 0.06 | 

— patent publication US10160783B2, “Neuroactive 13, 17-substituted steroids as modulators for GABA type-A receptors” (priority 2013, dated 2018)
